One compound from patent US20050123906A1, “Protein modulation” (priority 2003, published 2005) can be followed below.

Structures are written as SMILES. Non-standard residues stand in square brackets, D forms with d. Residues, ends and D or L forms follow the SMILES beside them. Nle = CCCC[C@H](N)C(=O)O

In assay [1] the test system is CFP-APO. Kind of assay: Vif-mediated depletion of CFP-APO with proteasome inhibition (immuno-blot, confocal microscopy). The conditions noted are these: for CFP-APO levels in the absence of Vif: 293T cells, pNL-A1Δvif. In kind it is cell-based, human. Here is the method: (§1) 293T cells were maintained in a humidified incubator (5% CO2) at 37° C. in Dulbecco's modified Eagle's medium (DMEM; Invitrogen) supplemented with 10% fetal bovine serum, 100 units/ml penicillin and 100 μg/ml streptomycin (Invitrogen). Qiagen-purified plasmid DNA (Qiagen, Valencia, Calif.) was transfected into 293T cells using Lipofectaminem 2000 lipofection agent (Invitrogen). For Western blot and immunoprecipitation experiments, 293T cells were transfected in either 6 or 12 well plates when the cells were ˜60% confluent. The amount of vector used and the molar ratio of vector for co-transfection experiments are described in the Results and figure legends. When necessary, final DNA amounts were made equal by the addition of pGEM (Promega). For live imaging and immuno-localization, 293T cells were seeded into poly-d-lysine coated 35 mm glass bottom culture dishes and transfected when the cells were ˜50% confluent. For proteasome inhibition studies, culture media containing 100 μM of N-Acetyl-Leu-Leu-Nle-CHO (ALLN, Calbiochem, La Jolla, Calif.) or the equivalent volume of DMSO was added to cells 12 hours prior to harvesting or imaging 36 hours post-transfection.
(§2) The level of Vif-mediated depletion of APOBEC3G was further determined over a broad range of Vif (pNL-A1):APOBEC3G (pCFP-APO) vector ratios ranging from 1:1 to 1:0.0625, where 1 refers to 130 fmoles of vector. The level of depletion was determined by comparing the steady-state levels of CFP-APO when co-expressed with Vif to the equivalent Δvif control (pNL-A1Δvif). […]
To prepare total protein lysates, each well of a 6- or 12-well plate was washed once in phosphate buffered saline (PBS, Invitrogen) and then lysed in either 400 or 200 μl, respectively, of Mammalian Protein Extraction Reagent (M-PER, Pierce, Rockford, Ill.) supplemented with 0.5% (v/v) Triton-X 100 (Pierce), 150 mM NaCl, 5 mM EDTA, and a 1/100 (v/v) dilution of a protease inhibitor cocktail for mammalian tissue for 30 minutes at 4° C. with gentle rotation. […] Protein concentration was determined by Dc protein assay (Bio-Rad, Hercules, Calif.). […]

Assay [2] concerns Vif. In words: Steady-state levels of Vif with proteasome inhibition (immuno-blot). In kind it is cell-based, HIV-1. The conditions noted are these: 293T cells, presence or absence of CFP-APO, 100 μM ALLN 12 hours. The method, then:
as §1, with “For proteasome inhibition studies, culture media containing 100 μM of N-Acetyl-Leu-Leu-Nle-CHO (ALLN, Calbiochem, La Jolla, Calif.) or the equivalent volume of DMSO was added to cells 12 hours prior to harvesting or imaging 36 hours post-transfection.” left out
as §2

With `CCCC[C@@H](C=O)NC(=O)[C@H](CC(C)C)NC(=O)[C@H](CC(C)C)NC(C)=O` [ALLN, N-Acetyl-Leu-Leu-Nle-CHO] (Ac-Leu-Leu-[Nle]-aldehyde), the “CFP-APO levels by confocal microscopy” value in assay [1] (293T cells expressing Vif, pNL-A1:pCFP-APO 1:0.25, proteasome inhibition) is recorded as “elevated”. Further, the “CFP-APO levels in the absence of Vif” value in assay [1] (all ratios except 1:0.0625, 100 μM ALLN 12 hours) is recorded as “not significantly affected”; in assay [1] (lowest pCFP-APO input (1:0.0625 ratio), 100 μM ALLN 12 hours) it was “modest reduction in expression”. Besides, in assay [2], the “Steady-state levels of Vif” value is given as “elevated the steady-state levels of Vif”.
